Assay results as given in ChEMBL document CHEMBL1123653 (J Med Chem, 1987).

Experiments:
[1] = biological target: T1, Serotonin 2 (5-HT2) receptor (Rattus norvegicus, UniProt P30994+P08909+P14842)
[2] = biological target: T2, Serotonin 1 (5-HT1) receptor (Rattus norvegicus, UniProt P28564+P30940+P19327+P28565)
[3] = biological target: T3, 5-hydroxytryptamine receptor 1B (Rattus norvegicus, UniProt P28564)
[4] = biological target: T4, 5-hydroxytryptamine receptor 1A (Rattus norvegicus, UniProt P19327)
T4 sequence (P19327 whole entry): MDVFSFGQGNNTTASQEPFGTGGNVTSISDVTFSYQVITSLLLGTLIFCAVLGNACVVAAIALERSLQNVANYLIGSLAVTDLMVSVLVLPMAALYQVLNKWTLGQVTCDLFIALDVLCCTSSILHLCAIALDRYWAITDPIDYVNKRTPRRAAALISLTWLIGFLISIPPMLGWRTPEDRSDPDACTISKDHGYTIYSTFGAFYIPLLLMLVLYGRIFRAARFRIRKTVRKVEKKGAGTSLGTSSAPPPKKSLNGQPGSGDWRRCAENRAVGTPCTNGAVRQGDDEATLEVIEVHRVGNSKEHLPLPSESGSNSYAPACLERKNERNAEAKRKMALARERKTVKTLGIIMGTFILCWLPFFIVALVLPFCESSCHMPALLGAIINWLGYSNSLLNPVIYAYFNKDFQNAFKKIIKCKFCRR

[5] = biological target: T2, Serotonin 1 (5-HT1) receptor; assay: Binding affinity towards 5-hydroxytryptamine 1 receptor was determined; type: protein assay
[6] = biological target: T1, Serotonin 2 (5-HT2) receptor; assay: Binding affinity to rat cortical membranes at 5-hydroxytryptamine 2 receptor binding site by using [3H]- DOB as a radioligand.
[7] = biological target: T1, Serotonin 2 (5-HT2) receptor; assay: Binding affinity to rat cortical membranes at 5-hydroxytryptamine 2 receptor binding site by using [3H]- DOB as a radioligand
[8] = biological target: T1, Serotonin 2 (5-HT2) receptor; remark: listed apart in the source
[9] = biological target: T1, Serotonin 2 (5-HT2) receptor; remark: listed apart in the source
[10] = biological target: T3, 5-hydroxytryptamine receptor 1B; remark: listed apart in the source
Description: Binding affinity towards 5-HT1B was determined

[11] = biological target: T1, Serotonin 2 (5-HT2) receptor; remark: listed apart in the source

T3 sequence (P28564 whole entry): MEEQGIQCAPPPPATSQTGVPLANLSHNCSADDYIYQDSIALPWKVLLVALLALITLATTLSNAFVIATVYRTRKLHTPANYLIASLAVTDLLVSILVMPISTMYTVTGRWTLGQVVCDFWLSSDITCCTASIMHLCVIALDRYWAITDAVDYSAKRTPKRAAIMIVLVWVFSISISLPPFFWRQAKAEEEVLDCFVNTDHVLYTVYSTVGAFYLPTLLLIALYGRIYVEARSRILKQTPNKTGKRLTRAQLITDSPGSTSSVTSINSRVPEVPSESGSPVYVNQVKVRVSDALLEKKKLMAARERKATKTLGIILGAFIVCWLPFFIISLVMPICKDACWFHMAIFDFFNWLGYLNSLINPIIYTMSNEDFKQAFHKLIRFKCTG

Question: `COc1cc(C[C@H](C)N)c(OC)cc1I` was tested. Which Ki [1] did it give?
Answer: The Ki was 35 nM.

Question: What about the Ki [2] of the same molecule?
Answer: The Ki was 920 nM.

Question: Which Ki [1] does the source give for `CN[C@H](C)Cc1cc(OC)c(C)cc1OC` here?
Answer: Its Ki is 260 nM.

Question: What about the Ki [2] of the same molecule?
Answer: The Ki was 4300 nM.

Question: With `COc1cc([N+](=O)[O-])c(OC)cc1C[C@@H](C)N` as the molecule, how does the Ki [1] read?
Answer: The Ki was 210 nM.

Question: And the Ki [2]?
Answer: Its Ki is 13200 nM.

Question: `NCCc1c[nH]c2ccc(C(N)=O)cc12` was tested. Which Ki [3] did it give?
Answer: Its Ki is 5 nM.

Question: What about the Ki [4] of the same molecule?
Answer: The Ki was 0.2 nM.

Question: For `NCCc1c[nH]c2cccc(O)c12`, which Ki [3] is on record?
Answer: Its Ki is 1050 nM.

Question: And the Ki [1]?
Answer: The Ki was 725 nM.

Question: What about the Ki [4] of the same molecule?
Answer: Its Ki is 95 nM.

Question: Which Ki [1] does the source give for `CNC(C)Cc1cc(OC)c(C)cc1OC` (configuration not stated) here?
Answer: Its Ki is 415 nM.

Question: What about the Ki [2] of the same molecule?
Answer: Its Ki is 3870 nM.

Question: Which Ki [3] does the source give for `NCCc1c[nH]c2cc(O)ccc12` here?
Answer: The Ki was 5890 nM.

Question: What about the Ki [1] of the same molecule?
Answer: The Ki was 11500 nM.

Question: And the Ki [4]?
Answer: The Ki was 1590 nM.

Question: With `C[C@@H](N)Cc1ccc2c(c1)OCO2` as the molecule, how does the Ki [2] read?
Answer: Its Ki is 13000 nM.

Question: How did the Ki [1] turn out when `COc1cc(CC(C)N)c(OC)cc1F` (configuration not stated) was run?
Answer: Its Ki is 1110 nM.

Question: And the Ki [2]?
Answer: Its Ki is 3370 nM.

Question: What does the source list for `FC(F)(F)c1cccc(N2CCNCC2)c1`?
Answer: Ki [3]: 30 nM; Ki [4]: 1950 nM; Ki [2]: 20 nM

Question: Which Ki [5] does the source give for `c1ccc2c(N3CCNCC3)cccc2c1` here?
Answer: Its Ki is 5 nM.

Question: `CNCCc1c[nH]c2ccc(O)cc12` was tested. Which Ki [3] did it give?
Answer: The Ki was 45 nM.

Question: What about the Ki [1] of the same molecule?
Answer: The Ki was 180 nM.

Question: And the Ki [4]?
Answer: The Ki was 5 nM.

Question: Which Ki [1] does the source give for `COc1ccc(CC(C)N)cc1OC` (configuration not stated) here?
Answer: The Ki was 43300 nM.

Question: And the Ki [2]?
Answer: Its Ki is 64600 nM.

Question: Which Ki [5] does the source give for `c1ccc2cc(N3CCNCC3)ccc2c1` here?
Answer: The Ki was 265 nM.

Question: For `COc1cc(C[C@@H](C)N)c(OC)cc1C`, which Ki [2] is on record?
Answer: The Ki was 3550 nM.

Question: With `COc1cc(C[C@H](C)N)c(OC)cc1Br` as the molecule, how does the Ki [2] read?
Answer: The Ki was 5000 nM.

Question: Which Ki [2] does the source give for `CCc1cc(OC)c(CC(C)N)cc1OC` (configuration not stated) here?
Answer: The Ki was 4570 nM.

Question: With `COc1cc([N+](=O)[O-])c(OC)cc1CC(C)N` (configuration not stated) as the molecule, how does the Ki [1] read?
Answer: The Ki was 300 nM.

Question: And the Ki [2]?
Answer: Its Ki is 14100 nM.

Question: `COc1cc(OC)c(OC)cc1CC(C)N` (configuration not stated) was tested. Which Ki [2] did it give?
Answer: The Ki was 46400 nM.

Question: Which results are given for `CCCc1cc(OC)c(CC(C)N)cc1OC` (configuration not stated)?
Answer: Ki [1]: 69 nM; Ki [2]: 3170 nM

Question: How did the Ki [4] turn out when `CC(C)NCC(O)COc1cccc2[nH]ccc12` (single isomer, unassigned; (-)) [PINDOLOL] was run?
Answer: Its Ki is 20 nM.

Question: `COc1cc(C[C@@H](C)N)c(OC)cc1Br` (stereo in doubt; form 1) was tested. Which Ki [2] did it give?
Answer: Its Ki is 4200 nM.

Question: How did the Ki [2] turn out when `COc1cc(C[C@@H](C)N)c(OC)cc1Br` (stereo in doubt; form 2) was run?
Answer: Its Ki is 4200 nM.

Question: How did the Ki [1] turn out when `CCCN(CCC)C1CCc2cccc(O)c2C1` (configuration not stated) [8-OH-DPAT] was run?
Answer: Its Ki is 5500 nM.

Question: And the Ki [6]?
Answer: Its Ki is 700 nM.

Question: For `CN(C)CCc1c[nH]c2ccc(O)cc12` [BUFOTENINE], which Ki [3] is on record?
Answer: The Ki was 910 nM.

Question: And the Ki [1]?
Answer: The Ki was 380 nM.

Question: What about the Ki [4] of the same molecule?
Answer: The Ki was 259 nM.

Question: Which Ki [3] does the source give for `Clc1cccc(N2CCNCC2)c1` [CHLOROPHENYLPIPERAZINE] here?
Answer: The Ki was 75 nM.

Question: And the Ki [4]?
Answer: Its Ki is 2400 nM.

Question: What does the source list for `CN(C)CCCSc1ccccc1NC(=O)/C=C/c1ccccc1` [CINANSERIN]?
Answer: Ki [7]: 4 nM; Ki [3]: 1000 nM; Ki [8]: 4 nM; Ki [1]: 4 nM; Ki [2]: 3500 nM

Question: How did the Ki [2] turn out when `COc1cc(CC(C)N)c(OC)cc1C` (configuration not stated) [DOM] was run?
Answer: Its Ki is 2890 nM.

Question: What does the source list for `O=C1c2ccccc2S(=O)(=O)N1CCCCN1CCN(c2ncccn2)CC1` [IPSAPIRONE]?
Answer: IC50 [9]: 10000 nM; IC50 [10]: 26000 nM

Question: Which Ki [3] does the source give for `O=C(c1ccc(F)cc1)C1CCN(CCn2c(=O)[nH]c3ccccc3c2=O)CC1` [KETANSERIN] here?
Answer: The Ki was 1900 nM.

Question: What about the Ki [4] of the same molecule?
Answer: The Ki was 1900 nM.

Question: `COc1ccc2[nH]cc(CCN(C)C)c2c1` [MEBUFOTENIN] was tested. Which Ki [3] did it give?
Answer: The Ki was 90 nM.

Question: What about the Ki [4] of the same molecule?
Answer: Its Ki is 20 nM.

Question: And the Ki [2]?
Answer: The Ki was 50 nM.

Question: Which Ki [3] does the source give for `CN1C[C@@H](NS(=O)(=O)N(C)C)C[C@@H]2c3cccc4c3c(cn4C)C[C@H]21` [MESULERGINE] here?
Answer: Its Ki is 13000 nM.

Question: And the Ki [4]?
Answer: The Ki was 300 nM.

Question: Which Ki [3] does the source give for `CN1C[C@H](CNC(=O)OCc2ccccc2)C[C@@H]2c3cccc4c3c(cn4C)C[C@H]21` [METERGOLINE] here?
Answer: Its Ki is 25 nM.

Question: What about the Ki [4] of the same molecule?
Answer: The Ki was 6 nM.

Question: What about the Ki [2] of the same molecule?
Answer: The Ki was 20 nM.

Question: With `COc1ccc(CC(C)N)cc1` (configuration not stated) [PARA-METHOXYAMPHETAMINE] as the molecule, how does the Ki [1] read?
Answer: The Ki was 33600 nM.

Question: What about the Ki [2] of the same molecule?
Answer: Its Ki is 79400 nM.

Question: `c1ccc(N2CCNCC2)cc1` [PHENYLPIPERAZINE] was tested. Which Ki [5] did it give?
Answer: Its Ki is 135 nM.

Question: `Cc1nc2ccccn2c(=O)c1CCN1CCC(C(=O)c2ccc(F)cc2)CC1` [PIRENPERONE] was tested. Which Ki [3] did it give?
Answer: Its Ki is 6600 nM.

Question: What about the Ki [11] of the same molecule?
Answer: The Ki was 0.3 nM.

Question: And the Ki [8]?
Answer: Its Ki is 1 nM.

Question: What about the Ki [4] of the same molecule?
Answer: Its Ki is 1700 nM.

Question: How did the Ki [7] turn out when `c1ccc2nc(N3CCNCC3)ccc2c1` [QUIPAZINE] was run?
Answer: The Ki was 17 nM.

Question: What about the Ki [3] of the same molecule?
Answer: The Ki was 320 nM.

Question: What about the Ki [8] of the same molecule?
Answer: The Ki was 645 nM.

Question: With `COc1ccc2[nH]cc(C3=CCNCC3)c2c1` [RU-24969] as the molecule, how does the Ki [3] read?
Answer: The Ki was 4 nM.

Question: For `O=C(CCCN1CCC2(CC1)C(=O)NCN2c1ccccc1)c1ccc(F)cc1` [SPIPERONE], which Ki [3] is on record?
Answer: The Ki was 4800 nM.

Question: And the Ki [4]?
Answer: The Ki was 40 nM.

Question: What about the Ki [2] of the same molecule?
Answer: The Ki was 160 nM.

Question: Which results are given for `NCCc1c[nH]c2ccccc12` [TRYPTAMINE]?
Answer: Ki [7]: 50 nM; Ki [1]: 2895 nM; Ki [4]: 170 nM
